A short description of series [1]: Non enzymatic assay of superoxide radical scavenging activity (PMS/NADH/NBT). The format is biochemical. The protocol:
Superoxide radical is a main cause of oxidative stress, expressing its biological toxicity by the inactivation of iron-sulfur cluster containing enzymes. The superoxide anion radical (O2^−^•) is less toxic than the hydroxyl radical, but still being one of the most known toxic reactive oxygen species (ROS). In this assay the superoxide anion radicals were generated by a non-enzymatically assay and the compounds are tested at 100 μM final concentration (Table 2). Caffeic acid (CA) has been used as a reference compound. Compound 4ii presented the highest activity, followed by compound 3ii. We succeeded to derive a quantitative-structure activity relationship model for this activity in which the topological polar surface (TPAS) of the compounds seem to govern the superoxide anion scavenging activity:% Superoxide Anion Scavenging Activity (100 µM) = 0.019 (±0.007) TPSA + 0.813 (±0.358) n = 6, r = 0.962, r^2 = 0.926, q^2 = 0.694, s = 0.122, Q = 7.885, F1,6 = 3.701, α = 0.1 clog P vs. TPSA 0.
The superoxide radicals are generated by mixing N-methylphenazonium methyl sulfate (PMS), NADH and air–oxygen and determined by the nitroblue tetrazolium method and measured at 560 nm (Table 2). Caffeic acid was used as reference compound [17, 18, 28].

A short description of series [2]: Experimental lipophilicity as RM values by reversed phase TLC (RPTLC). The format is physicochemical. The conditions noted are these: methanol/water 77/23 with 0.1% acetic acid, 24 °C, average of at least 5 measurements. The text has this: Lipophilicity is a physicochemical property correlated with the biological activity. Lipophilicity influences ligand-target binding interactions, solubility, absorption, distribution, bioavailability, metabolism and elimination (ADME) and toxicological outcomes. The lipophilicity of the novel cinnamic acids was experimentally measured as RM values using a reverse phase thin layer chromatography (RPTLC) method. This is acknowledged as a reliable, fast and convenient approach for expressing lipophilicity (Table 1). RM relates to the thermodynamic Rf value in a logarithmic form. Bate-Smith and Westall firstly determined lipophilicity as RM values in 1950 [31]. The Br-substituted derivatives 1i–7i are more lipophilic than the OH-substituted ones 1ii–7ii which can be easily explained by their structural characteristics.
Reversed phase TLC (RPTLC) was performed on silica gel plates impregnated with 55% (v/v) liquid paraffin in light petroleum ether. The mobile phase was a methanol/water mixture (77/23, v/v) containing 0.1% of acetic acid. The plates were developed in closed chromatography tanks saturated with the mobile phase at 24 °C. Spots were detected under UV light. RM values were determined from the corresponding Rf values (from five individual measurements) using the equation RM = log[(1/Rf) − 1] [17, 18, 28].

The nature of series [3]: Inhibition of linoleic acid peroxidation (AAPH). The conditions noted are these: anti-lipid peroxidation. Type of series: biochemical. The text has this: We also used water-soluble 2,2′-[…](2-amidinopropane) hydrochloride (AAPH) for the generation of free radicals. AAPH has been extensively used as a clean and controllable source of thermally produced alkylperoxyl free radicals. The peroxyl radicals produced by the action of AAPH show total similarity to cellular activities such as lipid peroxidation. […] It seems that the presence of 3,5-di-tert-butyl-group greatly enhances protection against lipid peroxidation (6i/ii and 7i/ii followed by 3ii and 5ii). The lipid peroxidation inhibitory activity seems to be concentration dependent.
2,2’-Azobis(2-amidinopropane) dihydrochloride (AAPH) was used as a free radical initiator to start the oxidation reaction. The method was based on the production of conjugated diene hydroperoxide by oxidation of linoleic acid at 234 nm expressed as an increased absorption. Trolox was used as reference compound (93%) (Table 2).

Series [4] is described as follows: ABTS+• decolorization assay. The format is biochemical. The settings on record: 1 min, 734 nm. The protocol:
No role for lipophilicity was found. Oxidation of ABTS with potassium persulfate generates directly the ABTS radical cation (ABTS^+•) with no involvement of an intermediary radical, which is then reduced upon adding electron-donating antioxidants.
In order to produce the ABTS radical cation (ABTS^+•), ABTS stock solution in water (7 mM) was mixed with potassium persulfate (2.45 mM) and left in the dark at room temperature for 12–16 h before use. Our published experimental technique was used (Table 2). The results are recorded after 1 min of the mixing solutions at 734 nm. The results were compared to the appropriate standard inhibitor Trolox.

The nature of series [5]: Reducing activity of the stable radical DPPH. The format is biochemical. As for the experimental part:
The substituted acids were monitored for the antioxidant activity by the use of the stable 2,2-diphenyl-1-picrylhydrazyl radical (DPPH) at concentration 50 µM and 100 µM after 20 and 60 min (Table 1). In this assay the DPPH radical is reduced by single electron transfer from the antioxidant. Strong antioxidants are the phenoxide anions from phenolic compounds like catechol and derivatives, such as nordihydroguaretic acid (NDGA), the reference compound. The compounds presented medium reducing abilities from 29–61%, due to steric reasons; small differences were found among the compounds with time and concentration. 4-Br-substituted-3 phenyl acetic acid derivatives (Series I) are equipotent to 4-OH-substituted-3 phenyl acetic acid derivatives (Series II). No differences were observed between 4i and 5i and 4ii and 5ii.
To a solution of DPPH in absolute ethanol an equal volume of the compounds dissolved in DMSO was added. The final concentrations of the measured solutions of the novel acids were 50 and 100 µM starting from a stock solution (10 mM) in DMSO. The absorbance was recorded at 517 nm, after 20 and 60 min at room temperature (Table 1).

A short description of series [6]: Competition with DMSO for hydroxyl radicals (Fe3+/ascorbic acid system). The format is biochemical. The settings on record: hydroxyl radical scavenging. The protocol: Competition of the novel substituted acids with DMSO for hydroxyl radicals was measured. Hydroxyl radicals were generated using the Fe^3+/ascorbic acid system and expressed as a percentage inhibition of formaldehyde production in the presence of each compound at 100 μM (Table 2). All the synthesized derivatives strongly scavenge hydroxyl radicals at 100 μM in comparison to the reference compound Trolox.
The hydroxyl radicals generated by the Fe^3+/ascorbic acid system, were detected by the determination of formaldehyde produced from the oxidation of DMSO (Table 2). Trolox was used as reference compound [17, 18, 28].

The target in a further series is T1, soybean lipoxygenase (Glycine max, UniProt P08170).
T1 construct: purchased Sigma Chemical, Co. (St. Louis)
T1 sequence (P08170 1-839): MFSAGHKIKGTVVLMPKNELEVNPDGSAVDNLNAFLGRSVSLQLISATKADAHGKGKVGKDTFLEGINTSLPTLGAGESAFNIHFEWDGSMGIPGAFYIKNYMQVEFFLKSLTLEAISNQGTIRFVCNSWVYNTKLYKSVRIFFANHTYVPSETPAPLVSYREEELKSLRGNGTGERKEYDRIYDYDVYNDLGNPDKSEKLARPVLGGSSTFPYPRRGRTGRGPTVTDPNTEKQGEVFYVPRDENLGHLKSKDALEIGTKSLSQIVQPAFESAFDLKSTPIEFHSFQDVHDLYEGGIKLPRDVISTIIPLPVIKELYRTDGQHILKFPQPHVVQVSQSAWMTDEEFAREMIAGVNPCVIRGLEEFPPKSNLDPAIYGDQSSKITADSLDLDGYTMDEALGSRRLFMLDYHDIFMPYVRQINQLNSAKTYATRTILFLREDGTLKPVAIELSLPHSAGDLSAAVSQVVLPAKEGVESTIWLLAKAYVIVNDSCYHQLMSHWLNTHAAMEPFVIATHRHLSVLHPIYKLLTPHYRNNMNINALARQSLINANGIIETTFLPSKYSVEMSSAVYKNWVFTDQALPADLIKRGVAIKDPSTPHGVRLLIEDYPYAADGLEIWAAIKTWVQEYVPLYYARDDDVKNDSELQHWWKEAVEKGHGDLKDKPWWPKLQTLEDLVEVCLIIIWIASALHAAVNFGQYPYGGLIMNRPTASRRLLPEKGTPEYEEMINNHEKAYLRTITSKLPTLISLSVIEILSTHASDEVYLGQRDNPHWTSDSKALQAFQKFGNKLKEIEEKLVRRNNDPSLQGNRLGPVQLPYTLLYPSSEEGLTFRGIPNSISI
Put plainly: Soybean lipoxygenase inhibition in vitro. The conditions noted are these: for IC50: sodium linoleate 0.1 mM, 234 nm, read-out: LOX IC50. The format is biochemical. The protocol: Many research groups have used readily obtainable soybean lipoxygenase, which is a homologue of mammalian lipoxygenase and well studied. Due to its availability and its well-characterised crystal structure, soybean LOX was selected to be used in this study.
In vitro study was evaluated as reported previously by our group. The tested compounds were incubated at room temperature with sodium linoleate (0.1 mM) and 0.2 mL of enzyme solution (1/9 × 104 w/v in saline). The method was based to the conversion of sodium linoleate to 13-hydroperoxylinoleic acid at 234 nm. […] In order to determine the IC50 values different concentrations were used.

Values joined by “and” are separate entries in the source; they are usually repeats but may differ in a detail not shown here. Equal values may be shown once.

`O=C(O)/C=C/c1ccc(O)c(O)c1` [CA, Caffeic acid, reference compound]: the “O2−•% 100 µM” value in series [1] is 23%.
In turn, `O=C(O)C(=Cc1cccc(Oc2ccccc2)c1)c1ccc(Br)cc1` [Compound 1i, 2-(4-Bromophenyl)-3-(3-phenoxyphenyl)acrylic acid] came in with a melting point of 152 to 153 °C. Besides, the “RM (±SD)” value in series [2] is −0.103 (0.009). In addition, in series [3], the “AAPH% 50 µM” value was found to be 34% and the “AAPH% 100 µM” value came to 90%. Besides, the “ABTS+•% 100 µM” value in series [4] turned out to be 29%. Moreover, in series [1], the “O2−•% 100 µM” value was found to be 54%. Moreover, in series [5], the “RA% 50 µM 20 min” value is listed as 38%, the “RA% 50 µM 60 min” value turned out to be 37%, the “RA% 100 µM 20 min” value amounted to 44% and the “RA% 100 µM 60 min” value stood at 46%. For the same compound, the “HO•% 100 µM” value in series [6] was 94%. Moreover, the half-maximal inhibitory concentration (IC50) at soybean lipoxygenase amounted to 100 µM.
On to `O=C(O)C(=Cc1cccc(Oc2ccccc2)c1)c1ccc(O)cc1` [Compound 1ii, 2-(4-Hydroxyphenyl)-3-(3-phenoxyphenyl)acrylic acid], for which the melting point is 105 to 107 °C. Moreover, the “RM (±SD)” value in series [2] is reported as −0.537 (0.002). In series [3], the “AAPH% 50 µM” value is listed as 22% and the “AAPH% 100 µM” value was 94%. Also, the “ABTS+•% 100 µM” value in series [4] was 83.4% and 83%. For the same compound, the “O2−•% 100 µM” value in series [1] amounted to 8%. Further, in series [5], the “RA% 50 µM 20 min” value worked out at 40%, the “RA% 50 µM 60 min” value came out at 39%, the “RA% 100 µM 20 min” value was determined as 45% and the “RA% 100 µM 60 min” value came out at 47%. In addition, the “HO•% 100 µM” value in series [6] was found to be 100%. Also, on soybean lipoxygenase, the 50% inhibitory concentration (IC50) turned out to be 91.5 µM.
`CN(C)c1ccc(C=CC=C(C(=O)O)c2ccc(O)cc2)cc1` [Compound 3ii, 5-(4-(Dimethylamino)phenyl)-2-(4-hydroxyphenyl)penta-2,4-dienoic acid] returned a melting point of 204 to 205 °C. Further, the “RM (±SD)” value in series [2] is on record as −0.642 (0.032). In addition, in series [3], the “AAPH% 50 µM” value came out at 71% and the “AAPH% 100 µM” value turned out to be 95%. Moreover, the “ABTS+•% 100 µM” value in series [4] turned out to be 63%. In addition, the “O2−•% 100 µM” value in series [1] is listed as 85%. Also, in series [5], the “RA% 50 µM 20 min” value came to 43%, the “RA% 50 µM 60 min” value amounted to 35%, the “RA% 100 µM 20 min” value is 44% and the “RA% 100 µM 60 min” value worked out at 46%. Also, in series [6], the “HO•% 100 µM” value was 99%. Further, the IC50 at soybean lipoxygenase was 89 µM.
Compound `O=C(O)C(=CC(Br)=Cc1ccccc1)c1ccc(Br)cc1` [Compound 4i, 4-Bromo-2-(4-bromophenyl)-5-phenylpenta-2,4-dienoic acid] registered a melting point of 211 to 212 °C. Besides, the “RM (±SD)” value in series [2] is 0.423 (0.017). Further, in series [3], the “AAPH% 50 µM” value came out at 52% and the “AAPH% 100 µM” value was found to be 85%. Besides, the “ABTS+•% 100 µM” value in series [4] is on record as 24%. Besides, in series [1], the “O2−•% 100 µM” value is recorded as 46%. In series [5], the “RA% 50 µM 20 min” value is 30%, the “RA% 50 µM 60 min” value came to 30%, the “RA% 100 µM 20 min” value is given as 38% and the “RA% 100 µM 60 min” value worked out at 36%. Further, in series [6], the “HO•% 100 µM” value is listed as 83%. Further, the “LOX % Inhibition 100 µM” value at soybean lipoxygenase (100 µM) was found to be 28%. In addition, the inhibition at 100 µM on soybean lipoxygenase (100 µM, read-out: LOX % Inhibition 100 µM) is 27.9%.
`O=C(O)C(=CC(Br)=Cc1ccccc1)c1ccc(O)cc1` [Compound 4ii, 4-Bromo-2-(4-hydroxyphenyl)-5-phenylpenta-2,4-dienoic acid] came in with a melting point of 155 to 157 °C. Moreover, in series [2], the “RM (±SD)” value is listed as 0.011 (0.001). Besides, in series [3], the “AAPH% 50 µM” value is given as 59% and the “AAPH% 100 µM” value was determined as 97%. Further, the “ABTS+•% 100 µM” value in series [4] was found to be 24%. Besides, the “O2−•% 100 µM” value in series [1] is reported as 100%. Further, in series [5], the “RA% 50 µM 20 min” value was 34%, the “RA% 50 µM 60 min” value was found to be 46%, the “RA% 100 µM 20 min” value is 35% and the “RA% 100 µM 60 min” value was determined as 37%. For the same compound, the “HO•% 100 µM” value in series [6] came out at 96%. Besides, the IC50 at soybean lipoxygenase was 69 µM.

A word on the melting point: it is the temperature, or range, at which the solid turns liquid. What is called IC50 is the midpoint of a concentration-inhibition curve. What is called inhibition is the change of the read-out against control, counted positive when it falls.

The values are drawn from PMC6337588, “Multi-Target Cinnamic Acids for Oxidative Stress and Inflammation: Design, Synthesis, Biological Evaluation and Modeling Studies” (Molecules, 2018).
